Assay results taken from US20230123334A1, “AMINO LIPID COMPOUND, PREPARATION METHOD THEREFOR, AND APPLICATION THEREOF” (SHENZHEN SHENXIN BIOTECHNOLOGY CO., LTD., priority 2020, published 2023).

System: HEK293 cells
Assay: Preliminary screening as mRNA vectors, EGFP mRNA transfection of HEK293 cells
Assay type: cell-based
Details: EGFP mRNA 50 ng per well, 96-well plates; percentage of GFP fluorescent cells relative to total number of cells (Hoechst)
In short: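 Screening format: EGFP mRNA transfection (50 ng/well) into HEK293 in 10% FBS-supplemented DMEM. Percent green fluorescent cells, normalised to Hoechst nuclear count, gave the value; Lipofectamine2000 was the reference transfectant.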

In order of falling “Absolute mRNA transfection efficiency in HEK293 cells” value:
1. CCCCCCCCCCCCCCCCSc1nc(NCCN2CCN(C)CC2)nc(SCCCCCC)n1 [Compound D5S6S16]  60.5%
2. CCCCCCCCCCCCCCCCCCSc1nc(NCCN2CCN(C)CC2)nc(SCCCCCC)n1 [Compound D5S6S18]  55.1%
3. CCCCCCCCCCCCCCSc1nc(NCCN2CCN(C)CC2)nc(SCCCCCC)n1 [Compound D5S6S14]  45.3%
4. CCCCCCCCCCCSc1nc(NCCN2CCN(C)CC2)nc(SCCCCCCC)n1 [Compound D5S7S11]  42.0%
5. CCCCCCCCCCCCCNc1nc(NCCN2CCN(C)CC2)nc(SCCCCCCC)n1 [Compound D5S7N13]  39.5%
6. CCCCCCCCCCCCCCCNc1nc(NCCN2CCN(C)CC2)nc(SCCCCCCC)n1 [Compound D5S7N15]  38.5%
7. CCCCCCCCCCCCCCCCCCNc1nc(NCCN2CCN(C)CC2)nc(SCCCCCCC)n1 [Compound D5S7N18]  38.5%
8. CCCCCCCCCCCCCCCCNc1nc(NCCN2CCN(C)CC2)nc(SCCCCCC)n1 [Compound D5S6N16]  35.4%
9. CCCCCCCCCCCCCCCCNc1nc(NCCN2CCN(C)CC2)nc(SCCCCCCC)n1 [Compound D5S7N16]  32.2%
10. CCCCCCCCCCCCCCCSc1nc(NCCN2CCN(C)CC2)nc(SCCCCCC)n1 [Compound D5S6S15]  29.7%
11. CCCCCCCCCCCCNc1nc(NCCN2CCN(C)CC2)nc(SCCCCCCC)n1 [Compound D5S7N12]  23.0%
12. CCCCCCCCCCCSc1nc(NCCN2CCN(C)CC2)nc(SCCCCCC)n1 [Compound D5S6S11]  21.1%
13. CCCCCCCCCSc1nc(NCCN2CCN(C)CC2)nc(SCCCCCCC)n1 [Compound D5S7S9]  20.6%
14. CCCCCCCCCCCCCCCCCCNc1nc(NCCN2CCN(C)CC2)nc(SCCCCCC)n1 [Compound D5S6N18]  16.6%
15. CCCCCCCCSc1nc(NCCN2CCN(C)CC2)nc(SCCCCCCC)n1 [Compound D5S7S8]  16.6%
16. CCCCCCCCCCCCCCCNc1nc(NCCN2CCN(C)CC2)nc(SCCCCCC)n1 [Compound D5S6N15]  16.4%
17. CCCCCCCCCCCCSc1nc(NCCN2CCN(C)CC2)nc(SCCCCCC)n1 [Compound D5S6S12]  14.0%
18. CCCCCCCCCCSc1nc(NCCN2CCN(C)CC2)nc(SCCCCCCC)n1 [Compound D5S7S10]  12.2%
19. CCCCCCCSc1nc(NCCN2CCN(C)CC2)nc(SCCCCCCC)n1 [Compound D5S7S7]  10.5%
20. CCCCCCCCCCSc1nc(NCCN2CCN(C)CC2)nc(SCCCCCC)n1 [Compound D5S6S10]  10.1%
21. CCCCCCCSc1nc(NCCN2CCN(C)CC2)nc(SCCCCCC)n1 [Compound D5S6S7]  10.0%
22. CCCCCCCCSc1nc(NCCN2CCN(C)CC2)nc(SCCCCCC)n1 [Compound D5S6S8]  8.7%
23. CCCCCCCCCSc1nc(NCCN2CCN(C)CC2)nc(SCCCCCC)n1 [Compound D5S6S9]  8.3%
24. CCCCCCCCCCCNc1nc(NCCN2CCN(C)CC2)nc(SCCCCCCC)n1 [Compound D5S7N11]  8.2%
25. CCCCCCCCCCCCCNc1nc(NCCN2CCN(C)CC2)nc(SCCCCCC)n1 [Compound D5S6N13]  7.2%
26. CCCCCCCCCCCCCCCCCCNc1nc(NCCN2CCCCC2)nc(SCCCCCCCCCCCCCCCC)n1 [Compound D4S16N18]  6.3%
27. CCCCCCCCNc1nc(NCCN2CCN(C)CC2)nc(SCCCCCC)n1 [Compound D5S6N8]  5.9%
28. CCCCCCCCCCCNc1nc(NCCN2CCN(C)CC2)nc(SCCCCCC)n1 [Compound D5S6N11]  5.3%
29. CCCCCCCCCCCCCCCCCCNc1nc(NCCN2CCCCC2)nc(SCCCCCCCCCCCCCCC)n1 [Compound D4S15N18]  5.1%
30. CCCCCCCCCCCCCCCCNc1nc(NCCN2CCCCC2)nc(SCCCCCCCCCCCCCCC)n1 [Compound D4S15N16]  4.8%
31. CCCCCCCCCCCCNc1nc(NCCN2CCN(C)CC2)nc(SCCCCCC)n1 [Compound D5S6N12]  4.4%
32. CCCCCCCNc1nc(NCCN2CCN(C)CC2)nc(SCCCCCC)n1 [Compound D5S6N7]  4.3%
33. CCCCCCSc1nc(NCCN2CCN(C)CC2)nc(SCCCCCC)n1 [Compound D5S6S6]  4.3%
34. CCCCCCCCNc1nc(NCCN2CCN(C)CC2)nc(SCCCCCCC)n1 [Compound D5S7N8]  4.3%
35. CCCCCCCCCCCCCCCCNc1nc(NCCN2CCCCC2)nc(SCCCCCCCCCCCCCCCC)n1 [Compound D4S16N16]  3.6%
36. CCCCCCCCCCCCCCCNc1nc(NCCN2CCCCC2)nc(SCCCCCCCCCCCCCCC)n1 [Compound D4S15N15]  3.5%
37. CCCCCCCCCNc1nc(NCCN2CCN(C)CC2)nc(SCCCCCCC)n1 [Compound D5S7N9]  3.1%
38. CCCCCCCCCCCCCCCCSc1nc(NCCCCCC)nc(NCCN2CCCCC2)n1 [Compound D4S16N6]  2.6%
39. CCCCCCCCCCCCCCCCCCNc1nc(NCCN2CCCCC2)nc(SCCCCCCCCCCCCCC)n1 [Compound D4S14N18]  2.2%
40. CCCCCCNc1nc(NCCN2CCN(C)CC2)nc(SCCCCCC)n1 [Compound D5S6N6]  2.1%
41. CCCCCCCCCNc1nc(NCCN2CCN(C)CC2)nc(SCCCCCC)n1 [Compound D5S6N9]  2.0%
42. CCCCCCCSc1nc(NCCCCCC)nc(NCCN2CCN(C)CC2)n1 [Compound D5S7N6]  1.9%
43. CCCCCCCCCCCCCCCSc1nc(NCCCCCCCCC)nc(NCCN2CCCCC2)n1 [Compound D4S15N9]  1.8%
44. CCCCCCCCCCCCCCCSc1nc(NCCCCCCCC)nc(NCCN2CCCCC2)n1 [Compound D4S15N8]  1.6%
45. CCCCCCCCCCCCCCCSc1nc(NCCCCCCCCCCCC)nc(NCCN2CCCCC2)n1 [Compound D4S15N12]  1.6%
46. CCCCCCCCCCCCCCCCCCSc1nc(NCCCCCCCCCCCCCCC)nc(NCCN2CCCCC2)n1 [Compound D4S18N15]  1.6%
47. CCCCCCCCCCCCCCCCCCSc1nc(NCCCCCC)nc(NCCN2CCCCC2)n1 [Compound D4S18N6]  1.5%
48. CCCCCCCCCCCCCCCSc1nc(NCCCCCC)nc(NCCN2CCCCC2)n1 [Compound D4S15N6]  1.3%
49. CCCCCCCCCCCCCCCCSc1nc(NCCCCCCCC)nc(NCCN2CCCCC2)n1 [Compound D4S16N8]  1.3%
50. CCCCCCCCCCCCCCCSc1nc(NCCCCCCC)nc(NCCN2CCCCC2)n1 [Compound D4S15N7]  1.2%
51. CCCCCCCCCCCCCCCSc1nc(NCCCCCCCCCCC)nc(NCCN2CCCCC2)n1 [Compound D4S15N11]  1.0%
52. CCCCCCCCCCCCCCCCSc1nc(NCCCCCCCCC)nc(NCCN2CCCCC2)n1 [Compound D4S16N9]  1.0%
53. CCCCCCCNc1nc(NCCN2CCN(C)CC2)nc(SCCCCCCC)n1 [Compound D5S7N7]  1.0%
54. CCCCCCCCCCCCCCCCCCSc1nc(NCCCCCCCCCCC)nc(NCCN2CCCCC2)n1 [Compound D4S18N11]  0.9%
55. CCCCCCCCCCCCCCCSc1nc(NCCCCCCCCCCCCC)nc(NCCN2CCCCC2)n1 [Compound D4S15N13]  0.8%
56. CCCCCCCCCCCCCCCCSc1nc(NCCCCCCC)nc(NCCN2CCCCC2)n1 [Compound D4S16N7]  0.8%
57. CCCCCCCCCCCCCCCCCCSc1nc(NCCCCCCCCCCCC)nc(NCCN2CCCCC2)n1 [Compound D4S18N12]  0.7%
58. CCCCCCCCCCCCCCCCCCSc1nc(NCCCCCCCCCCCCC)nc(NCCN2CCCCC2)n1 [Compound D4S18N13]  0.7%
59. CCCCCCCCCCCCCCCCSc1nc(NCCCCCCCCCCC)nc(NCCN2CCCCC2)n1 [Compound D4S16N11]  0.5%
60. CCCCCCCCCCCCCCCCCCSc1nc(NCCCCCCCCCCCCCCCC)nc(NCCN2CCCCC2)n1 [Compound D4S18N16]  0.4%
61. CCCCCCCCCCCCCCCCCCSc1nc(NCCCCCCC)nc(NCCN2CCCCC2)n1 [Compound D4S18N7]  0.3%
62. CCCCCCCCCCCCCCCCCCSc1nc(NCCCCCCCCC)nc(NCCN2CCCCC2)n1 [Compound D4S18N9]  0.2%
63. CCCCCCCCCCCCCCCCCCNc1nc(NCCN2CCCCC2)nc(SCCCCCCCCCCCCCCCCCC)n1 [Compound D4S18N18]  0.2%
64. CCCCCCCCCCCCCCCCSc1nc(NCCCCCCCCCCCC)nc(NCCN2CCCCC2)n1 [Compound D4S16N12]  0.1%
65. CCCCCCCCCCCCCCCCSc1nc(NCCCCCCCCCCCCC)nc(NCCN2CCCCC2)n1 [Compound D4S16N13]  0.1%
66. CCCCCCCCCCCCCCCCSc1nc(NCCCCCCCCCCCCCCC)nc(NCCN2CCCCC2)n1 [Compound D4S16N15]  0.1%
